# Laboratory results published in ChEMBL document CHEMBL4507276 (2021).
# What was measured:
# [1] = target: Serine/threonine-protein kinase 32C (Homo sapiens) (UniProt Q86UX6); details: Compound concentration 1000.0 nM
# [2] = target: Dual specificity protein kinase CLK1 (Homo sapiens) (UniProt P49759); details: Compound concentration 1000.0 nM
# [3] = target: Serine/threonine-protein kinase 26 (Homo sapiens) (UniProt Q9P289); details: Compound concentration 1000.0 nM
# [4] = target: Platelet-derived growth factor receptor beta (Homo sapiens) (UniProt P09619); details: Compound concentration 1000.0 nM
# [5] = target: cAMP-dependent protein kinase catalytic subunit beta (Homo sapiens) (UniProt P22694); details: Compound concentration 1000.0 nM
# [6] = target: Mitogen-activated protein kinase kinase kinase 10 (Homo sapiens) (UniProt Q02779); details: Compound concentration 1000.0 nM
# [7] = target: 5'-AMP-activated protein kinase catalytic subunit alpha-1 (Homo sapiens) (UniProt Q13131); details: Compound concentration 1000.0 nM
# [8] = target: Cyclin-G-associated kinase (Homo sapiens) (UniProt O14976); details: Compound concentration 1000.0 nM
# [9] = target: Ephrin type-A receptor 3 (Homo sapiens) (UniProt P29320); details: Compound concentration 1000.0 nM
# [10] = target: Vascular endothelial growth factor receptor 2 (Homo sapiens) (UniProt P35968); details: Compound concentration 1000.0 nM
# [11] = target: Mitogen-activated protein kinase kinase kinase kinase 4 (Homo sapiens) (UniProt O95819); details: Compound concentration 1000.0 nM
# [12] = target: Mast/stem cell growth factor receptor Kit (Homo sapiens) (UniProt P10721); details: Compound concentration 1000.0 nM
# [13] = target: Serine/threonine-protein kinase PRP4 homolog (Homo sapiens) (UniProt Q13523); details: Compound concentration 1000.0 nM
# [14] = target: Serine/threonine-protein kinase Nek5 (Homo sapiens) (UniProt Q6P3R8); details: Compound concentration 1000.0 nM
# [15] = target: Tyrosine-protein kinase receptor UFO (Homo sapiens) (UniProt P30530); details: Compound concentration 1000.0 nM
# [16] = target: Tyrosine-protein kinase JAK1 (Homo sapiens) (UniProt P23458); details: Compound concentration 1000.0 nM
# [17] = target: T1, cGMP-dependent protein kinase 2 (Homo sapiens) (UniProt Q13237); details: Compound concentration 1000.0 nM
# T1 sequence (whole entry): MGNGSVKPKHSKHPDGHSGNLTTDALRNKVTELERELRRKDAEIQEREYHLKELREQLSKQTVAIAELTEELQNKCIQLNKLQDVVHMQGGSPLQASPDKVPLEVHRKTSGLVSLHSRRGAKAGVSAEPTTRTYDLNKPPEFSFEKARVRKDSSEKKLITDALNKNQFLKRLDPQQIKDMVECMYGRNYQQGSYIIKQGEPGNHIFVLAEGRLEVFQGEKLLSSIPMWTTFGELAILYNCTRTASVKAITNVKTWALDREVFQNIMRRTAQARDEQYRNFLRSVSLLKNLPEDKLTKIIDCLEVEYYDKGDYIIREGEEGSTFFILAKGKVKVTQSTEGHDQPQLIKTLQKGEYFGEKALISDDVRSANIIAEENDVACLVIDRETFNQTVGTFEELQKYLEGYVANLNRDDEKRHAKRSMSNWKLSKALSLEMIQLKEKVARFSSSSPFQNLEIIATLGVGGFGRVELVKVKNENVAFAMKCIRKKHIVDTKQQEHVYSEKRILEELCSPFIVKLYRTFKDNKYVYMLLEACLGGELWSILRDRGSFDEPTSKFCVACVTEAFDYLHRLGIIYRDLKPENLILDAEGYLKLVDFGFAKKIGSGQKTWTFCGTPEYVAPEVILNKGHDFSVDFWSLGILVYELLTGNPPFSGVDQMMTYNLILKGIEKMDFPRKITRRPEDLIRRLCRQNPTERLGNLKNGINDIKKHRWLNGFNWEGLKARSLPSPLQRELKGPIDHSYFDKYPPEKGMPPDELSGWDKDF
# [18] = target: T2, Muscarinic acetylcholine receptor M4 (Homo sapiens) (UniProt P08173); details: Compound concentration 10.0 uM
# T2 sequence (whole entry): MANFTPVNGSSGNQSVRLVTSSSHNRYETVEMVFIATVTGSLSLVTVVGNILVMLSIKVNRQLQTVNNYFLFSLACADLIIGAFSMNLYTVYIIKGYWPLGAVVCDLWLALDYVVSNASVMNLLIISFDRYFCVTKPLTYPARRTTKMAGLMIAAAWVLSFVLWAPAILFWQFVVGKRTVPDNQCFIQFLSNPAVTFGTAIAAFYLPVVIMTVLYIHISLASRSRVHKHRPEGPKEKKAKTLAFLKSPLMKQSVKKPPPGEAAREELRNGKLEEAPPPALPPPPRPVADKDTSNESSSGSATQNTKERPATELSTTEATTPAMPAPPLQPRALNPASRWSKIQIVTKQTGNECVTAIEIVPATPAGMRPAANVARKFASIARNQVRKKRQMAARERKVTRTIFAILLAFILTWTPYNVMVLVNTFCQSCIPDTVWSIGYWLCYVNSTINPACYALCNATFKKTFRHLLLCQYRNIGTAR
# [19] = target: Homeodomain-interacting protein kinase 3 (Homo sapiens) (UniProt Q9H422); details: Compound concentration 1000.0 nM
# [20] = target: Atypical kinase COQ8A, mitochondrial (Homo sapiens) (UniProt Q8NI60); details: Compound concentration 1000.0 nM
# [21] = system: Epidermal growth factor receptor (Homo sapiens), P00533 [G719S]; details: Compound concentration 1000.0 nM
# [22] = system: Tyrosine-protein kinase ABL1 (Homo sapiens), P00519 [T315I]; details: Compound concentration 1000.0 nM
# [23] = system: Mast/stem cell growth factor receptor Kit (Homo sapiens), P10721 [D816H]; details: Compound concentration 1000.0 nM
# [24] = system: Epidermal growth factor receptor (Homo sapiens), P00533 [G719C]; details: Compound concentration 1000.0 nM
# [25] = target: Peripheral plasma membrane protein CASK (Homo sapiens) (UniProt O14936); details: Compound concentration 1000.0 nM
# Chain of Platelet-derived growth factor receptor beta (Homo sapiens) (P09619 whole entry): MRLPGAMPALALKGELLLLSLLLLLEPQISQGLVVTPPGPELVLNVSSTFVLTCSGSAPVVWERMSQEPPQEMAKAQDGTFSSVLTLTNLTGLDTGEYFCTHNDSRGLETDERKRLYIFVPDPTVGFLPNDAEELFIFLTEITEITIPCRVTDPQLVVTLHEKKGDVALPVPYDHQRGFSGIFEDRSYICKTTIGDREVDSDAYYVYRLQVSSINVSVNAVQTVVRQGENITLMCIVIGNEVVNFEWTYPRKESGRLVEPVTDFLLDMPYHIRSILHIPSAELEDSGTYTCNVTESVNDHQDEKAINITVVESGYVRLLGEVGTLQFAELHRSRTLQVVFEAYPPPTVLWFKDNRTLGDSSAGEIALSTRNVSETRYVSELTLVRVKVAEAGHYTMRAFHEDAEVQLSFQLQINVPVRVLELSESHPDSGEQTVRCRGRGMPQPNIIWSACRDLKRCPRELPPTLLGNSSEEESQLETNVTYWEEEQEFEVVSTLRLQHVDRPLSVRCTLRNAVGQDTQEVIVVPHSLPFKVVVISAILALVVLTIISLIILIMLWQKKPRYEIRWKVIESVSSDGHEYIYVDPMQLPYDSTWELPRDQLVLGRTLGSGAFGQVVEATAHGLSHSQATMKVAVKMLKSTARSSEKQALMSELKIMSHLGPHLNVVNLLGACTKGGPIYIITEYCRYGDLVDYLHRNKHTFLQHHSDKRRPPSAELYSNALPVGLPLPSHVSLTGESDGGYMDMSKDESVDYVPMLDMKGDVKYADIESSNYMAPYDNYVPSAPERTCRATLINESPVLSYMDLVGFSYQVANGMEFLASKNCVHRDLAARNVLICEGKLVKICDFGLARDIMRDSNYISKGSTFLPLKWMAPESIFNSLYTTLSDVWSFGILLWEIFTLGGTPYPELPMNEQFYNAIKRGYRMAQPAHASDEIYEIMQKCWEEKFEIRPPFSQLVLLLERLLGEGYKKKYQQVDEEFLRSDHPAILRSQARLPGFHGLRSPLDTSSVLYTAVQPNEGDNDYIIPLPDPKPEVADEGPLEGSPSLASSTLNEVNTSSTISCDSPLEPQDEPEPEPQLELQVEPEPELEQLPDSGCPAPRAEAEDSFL
# Chain of Mast/stem cell growth factor receptor Kit (Homo sapiens) (P10721 whole entry): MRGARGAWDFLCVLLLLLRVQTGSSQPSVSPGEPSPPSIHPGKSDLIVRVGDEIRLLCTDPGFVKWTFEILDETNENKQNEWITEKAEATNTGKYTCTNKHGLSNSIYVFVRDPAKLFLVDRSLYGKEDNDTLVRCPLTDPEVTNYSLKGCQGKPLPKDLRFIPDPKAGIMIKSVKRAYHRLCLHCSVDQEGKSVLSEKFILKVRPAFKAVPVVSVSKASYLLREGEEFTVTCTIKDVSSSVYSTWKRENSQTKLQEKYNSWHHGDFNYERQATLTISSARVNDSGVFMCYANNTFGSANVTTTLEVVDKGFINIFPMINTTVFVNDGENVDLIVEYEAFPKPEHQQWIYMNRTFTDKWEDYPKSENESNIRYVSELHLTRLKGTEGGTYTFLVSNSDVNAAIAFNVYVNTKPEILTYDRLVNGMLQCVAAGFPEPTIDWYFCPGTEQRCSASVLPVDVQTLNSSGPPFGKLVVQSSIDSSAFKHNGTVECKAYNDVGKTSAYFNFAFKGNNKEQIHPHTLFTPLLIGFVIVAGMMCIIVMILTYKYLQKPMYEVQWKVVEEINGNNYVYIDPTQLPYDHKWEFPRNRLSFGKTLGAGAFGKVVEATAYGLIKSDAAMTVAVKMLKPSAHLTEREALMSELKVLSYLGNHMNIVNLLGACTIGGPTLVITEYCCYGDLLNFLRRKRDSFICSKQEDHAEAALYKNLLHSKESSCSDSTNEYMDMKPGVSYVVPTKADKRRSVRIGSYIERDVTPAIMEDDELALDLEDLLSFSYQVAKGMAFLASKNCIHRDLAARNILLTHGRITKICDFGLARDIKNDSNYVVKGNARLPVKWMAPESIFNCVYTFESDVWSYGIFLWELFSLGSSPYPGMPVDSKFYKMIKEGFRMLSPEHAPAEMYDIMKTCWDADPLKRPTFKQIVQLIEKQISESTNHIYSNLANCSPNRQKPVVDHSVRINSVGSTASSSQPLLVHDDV
# Chain of Dual specificity protein kinase CLK1 (Homo sapiens) (P49759 whole entry, looked up): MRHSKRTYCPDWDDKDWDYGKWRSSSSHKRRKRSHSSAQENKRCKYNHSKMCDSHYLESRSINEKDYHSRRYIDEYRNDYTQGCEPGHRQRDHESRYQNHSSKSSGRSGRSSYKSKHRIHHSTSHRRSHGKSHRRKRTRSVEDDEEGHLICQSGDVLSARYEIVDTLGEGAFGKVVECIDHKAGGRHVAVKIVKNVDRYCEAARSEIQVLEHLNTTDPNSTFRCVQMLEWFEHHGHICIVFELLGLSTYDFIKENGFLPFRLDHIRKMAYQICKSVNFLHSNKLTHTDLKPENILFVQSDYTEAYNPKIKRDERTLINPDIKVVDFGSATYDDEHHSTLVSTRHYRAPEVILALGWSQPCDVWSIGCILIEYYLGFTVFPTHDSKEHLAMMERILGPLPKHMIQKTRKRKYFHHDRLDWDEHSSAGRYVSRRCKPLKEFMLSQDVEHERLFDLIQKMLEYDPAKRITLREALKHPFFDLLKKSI
# Chain of Cyclin-G-associated kinase (Homo sapiens) (O14976 whole entry): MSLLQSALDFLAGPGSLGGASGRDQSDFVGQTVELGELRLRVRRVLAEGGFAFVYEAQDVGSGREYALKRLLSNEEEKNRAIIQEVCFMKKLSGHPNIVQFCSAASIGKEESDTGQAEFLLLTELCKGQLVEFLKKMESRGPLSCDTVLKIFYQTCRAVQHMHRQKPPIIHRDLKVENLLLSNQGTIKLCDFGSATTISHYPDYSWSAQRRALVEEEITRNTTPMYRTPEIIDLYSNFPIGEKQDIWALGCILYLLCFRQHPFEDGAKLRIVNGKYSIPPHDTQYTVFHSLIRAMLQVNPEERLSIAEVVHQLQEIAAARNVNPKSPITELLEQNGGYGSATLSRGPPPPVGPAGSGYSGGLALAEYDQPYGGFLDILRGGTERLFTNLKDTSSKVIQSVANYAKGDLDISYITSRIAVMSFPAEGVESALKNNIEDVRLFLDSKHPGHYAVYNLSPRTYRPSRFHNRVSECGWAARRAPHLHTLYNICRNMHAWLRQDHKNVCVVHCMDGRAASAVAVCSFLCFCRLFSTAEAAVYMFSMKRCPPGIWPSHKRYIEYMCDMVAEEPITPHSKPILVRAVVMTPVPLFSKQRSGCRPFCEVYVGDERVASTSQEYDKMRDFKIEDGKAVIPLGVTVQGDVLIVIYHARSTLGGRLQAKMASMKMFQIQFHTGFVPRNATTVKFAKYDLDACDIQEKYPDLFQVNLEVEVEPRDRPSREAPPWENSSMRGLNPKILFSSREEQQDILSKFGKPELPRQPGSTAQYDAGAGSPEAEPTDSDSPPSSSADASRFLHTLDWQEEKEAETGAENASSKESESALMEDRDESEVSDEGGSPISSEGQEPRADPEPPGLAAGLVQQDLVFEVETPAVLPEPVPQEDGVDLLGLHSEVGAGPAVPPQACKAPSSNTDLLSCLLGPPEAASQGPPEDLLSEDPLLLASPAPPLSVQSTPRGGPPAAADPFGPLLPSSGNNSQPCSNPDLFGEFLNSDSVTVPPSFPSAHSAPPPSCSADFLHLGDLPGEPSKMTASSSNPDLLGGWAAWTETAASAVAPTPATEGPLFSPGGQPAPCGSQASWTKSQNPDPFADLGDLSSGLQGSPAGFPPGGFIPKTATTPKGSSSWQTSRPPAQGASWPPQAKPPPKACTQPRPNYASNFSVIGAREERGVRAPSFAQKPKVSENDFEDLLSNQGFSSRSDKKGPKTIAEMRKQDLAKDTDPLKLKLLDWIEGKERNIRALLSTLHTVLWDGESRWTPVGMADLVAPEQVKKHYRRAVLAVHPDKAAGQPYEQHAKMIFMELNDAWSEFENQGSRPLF
# Chain of Mitogen-activated protein kinase kinase kinase 10 (Homo sapiens) (Q02779 whole entry, looked up): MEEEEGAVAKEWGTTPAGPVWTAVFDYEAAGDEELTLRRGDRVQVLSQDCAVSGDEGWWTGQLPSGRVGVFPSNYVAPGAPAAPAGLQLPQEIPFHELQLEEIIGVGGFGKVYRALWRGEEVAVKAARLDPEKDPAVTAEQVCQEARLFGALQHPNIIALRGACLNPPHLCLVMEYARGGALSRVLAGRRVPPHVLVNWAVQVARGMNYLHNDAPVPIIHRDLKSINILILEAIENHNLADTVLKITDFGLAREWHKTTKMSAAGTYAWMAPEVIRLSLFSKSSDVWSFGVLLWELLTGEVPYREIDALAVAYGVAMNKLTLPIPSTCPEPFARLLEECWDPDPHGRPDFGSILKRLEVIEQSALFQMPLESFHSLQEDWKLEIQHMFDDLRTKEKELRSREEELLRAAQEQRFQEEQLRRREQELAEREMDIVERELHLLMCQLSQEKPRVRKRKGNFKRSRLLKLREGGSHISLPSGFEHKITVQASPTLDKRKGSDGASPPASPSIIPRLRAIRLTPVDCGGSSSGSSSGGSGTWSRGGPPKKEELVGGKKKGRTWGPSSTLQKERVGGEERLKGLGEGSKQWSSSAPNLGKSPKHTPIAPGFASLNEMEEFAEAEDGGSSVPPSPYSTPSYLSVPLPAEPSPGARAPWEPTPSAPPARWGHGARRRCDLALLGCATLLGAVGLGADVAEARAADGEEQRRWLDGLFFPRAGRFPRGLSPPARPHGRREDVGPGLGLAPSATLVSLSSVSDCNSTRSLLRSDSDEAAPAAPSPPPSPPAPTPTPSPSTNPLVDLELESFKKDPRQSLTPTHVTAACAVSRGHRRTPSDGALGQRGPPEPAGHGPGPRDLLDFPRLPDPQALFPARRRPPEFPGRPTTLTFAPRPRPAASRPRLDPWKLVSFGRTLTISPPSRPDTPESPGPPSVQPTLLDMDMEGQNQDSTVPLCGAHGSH
# Chain of Mast/stem cell growth factor receptor Kit (Homo sapiens), P10721 [D816H] (P10721 whole entry D816H): as the sequence (P10721 whole entry) above, with D816H counted along it
Compound,residual activity [1] [%],residual activity [2] [%],residual activity [3] [%],residual activity [4] [%],residual activity [5] [%],residual activity [6] [%],residual activity [7] [%],residual activity [8] [%],residual activity [9] [%],residual activity [10] [%],residual activity [11] [%],residual activity [12] [%],residual activity [13] [%],residual activity [14] [%],residual activity [15] [%],residual activity [16] [%],residual activity [17] [%],inhibition [18] [%],residual activity [19] [%],residual activity [20] [%],also measured
CN(C)C(=O)Cn1cc(-c2nc(C3(c4ccc(-c5cnc(N)nc5)cc4)CC3)no2)cn1 [BI 0153],100,100,89,94,86,62,98,100,89,70,66,77,87,89,93,100,100,5.81,71,99,residual activity [21]: 100%; residual activity [22]: 100%; residual activity [23]: 85%; residual activity [24]: 100%; residual activity [25]: 76%
CN(C)C(=O)Cn1cc(-c2nc([C@@](C)(c3ccc(-c4cnc(N)nc4)cc3)C3CC3)no2)cn1 [BI 665915],88,93,97,82,100,83,95,100,100,87,90,86,86,89,98,33,85,10.3,97,100,residual activity [21]: 98%; residual activity [22]: 90%; residual activity [23]: 100%; residual activity [24]: 85%; residual activity [25]: 82%
